From patent publication US4868186A, “Theophyllinemethyldithiolan and theophyllinemethyldithianyl derivatives having antibronchospastic antitussive and mucolytic activity” (Istituto Biologico Chemioterapico ABC S.p.A., priority 1986, dated 1989)
Converted amounts (≈) assume the structure as drawn. Structures can show the parent of a compound that is named as a salt. Where two headings read alike, the source gives them in different places.

Assays:
[1] = tested on: bronchospasm by acetylcholine chloride in guinea-pigs; test: Bronchospasm by acetylcholine chloride (0.075 mg/kg i.v.) in guinea-pigs (Konzett and Roesler); type: in vivo, guinea-pig; details: for ED50: Cavia porcellus, iv
Protocol: Exp. Path. […] J. Pharmcol. 15, 290. Male guinea-pigs weighing 300-450 g were used under urethane anaesthesia (lg/kg i.p.). The animals were suitably prepared by insertion of a cannula in the jugular vein for intravenous administrations while the trachea was connected to an artificial respiration pump (Palmer) adapted for small animals, which was operated at a frequency of approximately 70 insufflations per minute. The pneumogram was recorded by means of a transducer on a polygraph (Battaglia-Rangoni).

[2] = tested on: completely removed guinea-pig tracheas; test: Constrictive action of histamine di-hydrochloride on completely removed guinea-pig tracheas (in vitro); type: cell-based; details: for IC50: Cavia porcellus, read-out: ED50 (the source's name); for IC50 / ED50: Table I; for IC50 / % inhibition / ED50: histamine di-hydrochloride 5.10^-6 g/ml
Protocol: Thirty white guinea-pigs were used, from which the tracheas were removed, after they had been killed by ethereal anaesthesia. The tracheas were placed in a 50 ml bath of Krebs solution, suitably oxygenated and thermoregulated at a temperature of 37° C. The lower end of the trachea was closed while the upper end was connected to a polythene tube connected to a transducer for measuring volume differences connected to a polygraph, according to D. Jamieson's method 1962, Brit. J. Pharmacol. and Chemiotherapy, 19, 286, partially modified. Both the trachea and the polythene tube were filled with Krebs solution. The responses of the tracheas thus prepared to acetylcholine and histamine were investigated before and after the addition of the product to the bath.

[3] = tested on: rabbits; test: Mucolytic activity: mucoproduction in rabbits before and after oral treatment; type: in vivo, rabbit; details: for Mucoproduction (mg/h) M ± SD 4-0 h (before the treatment): baseline before treatment; for mucolytic activity (in words): rabbits, oral
Protocol: (b) Mucolytic activity of compound 1, doxophylline and bromohexyne hydrochloride For these tests the method described by Perry, W. F., Boyd, E. M., J. Pharmacol., 1941, 73, 65 and suitably modified by us was used. New Zealand-type, male, white rabbits weighing 2.8-3.5 kg. were used. Pre-operative preparation consisted of treatment with 9 mg/kg i.m. of a non-stupefying central analgesic ([…] local anaesthesia in the tracheal region with xylocaine (0.9 mg/kg - 1% solution). The surgical operation commenced 15-20 minutes after the pharmacological pre-treatment. The trachea was exposed and a hole approximately 5-6 mm in diameter was made in its ventral side. The trachea was then introduced into the lower arm of a three-way polypropylene cannula, which had been cut suitably, longitudinally so as to connect the hole made in the trachea with the aperture of the third arm (vertical) of the cannula, and thus put it into communication with the outside. Thus, the cannula surrounded the outside of the trachea and was fixed "in loco" with sterile surgical silk thread. A polypropylene container was attached to the vertical arm of the cannula for collecting the mucous (capacity approximately 2 ml), and the wound was then sutured. The tracheal mucous was collected for four hours before the oral administration of the substance under test and for four hours after the treatment.

[4] = General statements on side effects, habituation, toxicity and therapeutic index; details: among compounds (1)-(4)
[5] = in vivo; details: po
Protocol: The products were administered in a 0.5% aqueous suspension of carboxymethylcellulose at a concentration of 1 ml/100 g of body weight.

[6] = legend of FIG. 2, unit inferred, read-out: ED 50

Cn1c(=O)c2[nH]cnc2n(C)c1=O [AMINOPHYLLINE, aminophylline]
ED50 [1]: 4.97 mg/kg
ED50 ([1]; read-out: ED50 mg/kg i.v.): 4.97 mg/kg
% Variation in endobronchial pressure after administration of acetylcholine chloride (0,075 mg/kg i.v.) M ± SE ([1]; dose 0.5 mg/kg i.v.): 158.7 ± 24.6%
% inhibition vs. controls ([1]; dose 0.5 mg/kg i.v.): -12.5%
% Variation in endobronchial pressure after administration of acetylcholine chloride (0,075 mg/kg i.v.) M ± SE ([1]; dose 1 mg/kg i.v.): 135.7 ± 21.2%
% inhibition vs. controls ([1]; dose 1 mg/kg i.v.): -25.2%
% Variation in endobronchial pressure after administration of acetylcholine chloride (0,075 mg/kg i.v.) M ± SE ([1]; dose 5 mg/kg i.v.): 117.0 ± 17.4%
% inhibition vs. controls ([1]; dose 5 mg/kg i.v.): -35.5%
% Variation in endobronchial pressure after administration of acetylcholine chloride (0,075 mg/kg i.v.) M ± SE ([1]; dose 10 mg/kg i.v.): 49.9 ± 10.2%
% inhibition vs. controls ([1]; dose 10 mg/kg i.v.): -72.5%
IC50 [2]: 206 µg/mL (≈ 1140 µM)
% inhibition ([2]; concentration 100 x 10^-6 g/ml): -10.9%
% inhibition ([2]; concentration 150 x 10^-6 g/ml): -18.7%
% inhibition ([2]; concentration 200 x 10^-6 g/ml): -46.15%
% inhibition ([2]; concentration 300 x 10^-6 g/ml): -79.4%

CN(Cc1cc(Br)cc(Br)c1N)C1CCCCC1 [BROMOHEXYNE, bromohexyne hydrochloride, reference compound]
Mucoproduction (mg/h) M ± SD 4-0 h (before the treatment) ([3]; group dosed 400 mg/kg os): 28.9 ± 7.82 mg/h
% Variation with respect to its own base ([3]; dose 400 mg/kg os): +34.98%
Mucoproduction (mg/h) M ± SD 0-4 h (after the treatment) ([3]; dose 400 mg/kg os): 39.01 ± 4.34 mg/h

Cn1c(=O)c2c(ncn2CC2SCCS2)n(C)c1=O [COMPOUND 1, 7-[2'-(1',3'-dithiolanyl)-methyl]-theophylline]
ED50 ([1]; Table II, i.v., read-out: ED50 mg/kg i.v.): 0.99 mg/kg
ED50 [1, 6]: 0.996 mg/kg
% Variation in endobronchial pressure after administration of acetylcholine chloride (0,075 mg/kg i.v.) M ± SE ([1]; dose 0.1 mg/kg i.v.): 166.0 ± 22.4%
% inhibition vs. controls ([1]; dose 0.1 mg/kg i.v.): -8.5%
% Variation in endobronchial pressure after administration of acetylcholine chloride (0,075 mg/kg i.v.) M ± SE ([1]; dose 0.5 mg/kg i.v.): 145.1 ± 18.7%
% inhibition vs. controls ([1]; dose 0.5 mg/kg i.v.): -20.0%
% Variation in endobronchial pressure after administration of acetylcholine chloride (0,075 mg/kg i.v.) M ± SE ([1]; dose 1 mg/kg i.v.): 87.1 ± 15.2%
% inhibition vs. controls ([1]; dose 1 mg/kg i.v.): -52.0%
% Variation in endobronchial pressure after administration of acetylcholine chloride (0,075 mg/kg i.v.) M ± SE ([1]; dose 2 mg/kg i.v.): 51.7 ± 6.5%
% inhibition vs. controls ([1]; dose 2 mg/kg i.v.): -71.5%
antibronchospastic effect relative to aminophylline ([1]; from Table II): approximately five times that of aminophylline
antibronchospastic effect relative to doxophylline ([1]; from Table II): approximately twice that of doxophylline
Mucoproduction (mg/h) M ± SD 4-0 h (before the treatment) ([3]; group dosed 10 mg/kg os): 30.6 ± 9.43 mg/h
Mucoproduction (mg/h) M ± SD 4-0 h (before the treatment) ([3]; group dosed 30 mg/kg os): 27.2 ± 5.22 mg/h
Mucoproduction (mg/h) M ± SD 4-0 h (before the treatment) ([3]; group dosed 100 mg/kg os): 29.7 ± 4.95 mg/h
mucolytic activity compared with bromohexyne hydrochloride ([3]; compound at 100 mg/kg vs bromohexyne hydrochloride at 400 mg/kg): more active than bromohexyne hydrochloride at a dose of 400 mg/kg
% Variation with respect to its own base ([3]; dose 10 mg/kg os): +13.95%
Mucoproduction (mg/h) M ± SD 0-4 h (after the treatment) ([3]; dose 10 mg/kg os): 34.87 ± 10.25 mg/h
% Variation with respect to its own base ([3]; dose 30 mg/kg os): +26.95%
Mucoproduction (mg/h) M ± SD 0-4 h (after the treatment) ([3]; dose 30 mg/kg os): 34.53 ± 4.16 mg/h
% Variation with respect to its own base ([3]; dose 100 mg/kg os): +57.27%
Mucoproduction (mg/h) M ± SD 0-4 h (after the treatment) ([3]; dose 100 mg/kg os): 46.71 ± 8.82 mg/h
mucolytic activity (in words) [3]: dose-related mucolytic activity
therapeutic index (in words) [4]: most favourable therapeutic index
LD50 at 480 h ([5]; mouse): 1510 mg/kg
LD50 at 480 h ([5]; rat): 1840 mg/kg
IC50 [2]: 126 µg/mL (≈ 423 µM)
% inhibition ([2]; concentration 50 x 10^-6 g/ml): -17.2%
% inhibition ([2]; concentration 100 x 10^-6 g/ml): -32.5%
% inhibition ([2]; concentration 200 x 10^-6 g/ml): -62.5%
% inhibition ([2]; concentration 300 x 10^-6 g/ml): -95.0%
activity in vitro, ranking among the compounds ([2]; on the basis of the results obtained in vitro): the most active

Cn1c(=O)c2c(ncn2CC2SCCCS2)n(C)c1=O [COMPOUND 2, 7-[2'-(1',3'-dithianyl)-methyl]-theophylline]
IC50 [2]: 837 µg/mL (≈ 2680 µM)
% inhibition ([2]; concentration 100 x 10^-6 g/ml): -12.0%
% inhibition ([2]; concentration 200 x 10^-6 g/ml): -18.5%
% inhibition ([2]; concentration 250 x 10^-6 g/ml): -26.5%
% inhibition ([2]; concentration 400 x 10^-6 g/ml): -38.5%

Cn1c(=O)c2c(ncn2CC2SCC[S+]2[O-])n(C)c1=O (centres unmarked) [COMPOUND 3, 7-[2'-(1',3'-dithiolanyl)-methyl]-theophylline sulphoxide]
ED50 [2]: 530.0 10^-6 g/ml
% inhibition ([2]; concentration 100 x 10^-6 g/ml): -14.5%
% inhibition ([2]; concentration 200 x 10^-6 g/ml): -21.5%
% inhibition ([2]; concentration 300 x 10^-6 g/ml): -35.4%
% inhibition ([2]; concentration 400 x 10^-6 g/ml): -47.5%

Cn1c(=O)c2c(ncn2CC2SCC[S+]2[O-])n(C)c1=O (centres unmarked) [COMPOUND 4, 7-[2'-(1',3'-dithiolanyl)-methyl]-theophylline sulphoxide]
ED50 [2]: 2241.8 10^-6 g/ml
% inhibition ([2]; concentration 100 x 10^-6 g/ml): -7.5%
% inhibition ([2]; concentration 200 x 10^-6 g/ml): -12.5%
% inhibition ([2]; concentration 300 x 10^-6 g/ml): -20.4%
% inhibition ([2]; concentration 400 x 10^-6 g/ml): -27.8%

Cn1c(=O)c2c(ncn2CC2OCCO2)n(C)c1=O [DOXOPHYLLINE, 7-[2'-(1',3'-dioxolanyl)-methyl]-theophylline, reference compound]
ED50 [1, 6]: 2.02 mg/kg
% Variation in endobronchial pressure after administration of acetylcholine chloride (0,075 mg/kg i.v.) M ± SE ([1]; dose 0.5 mg/kg i.v.): 153.8 ± 18.4%
% inhibition vs. controls ([1]; dose 0.5 mg/kg i.v.): -15.2%
% Variation in endobronchial pressure after administration of acetylcholine chloride (0,075 mg/kg i.v.) M ± SE ([1]; dose 1 mg/kg i.v.): 133.3 ± 14.8%
% inhibition vs. controls ([1]; dose 1 mg/kg i.v.): -26.5%
% Variation in endobronchial pressure after administration of acetylcholine chloride (0,075 mg/kg i.v.) M ± SE ([1]; dose 2 mg/kg i.v.): 88.5 ± 11.3%
% inhibition vs. controls ([1]; dose 2 mg/kg i.v.): -51.2%
% Variation in endobronchial pressure after administration of acetylcholine chloride (0,075 mg/kg i.v.) M ± SE ([1]; dose 4 mg/kg i.v.): 56.4 ± 8.8%
% inhibition vs. controls ([1]; dose 4 mg/kg i.v.): -68.9%
Mucoproduction (mg/h) M ± SD 4-0 h (before the treatment) ([3]; group dosed 100 mg/kg os): 29.8 ± 5.80 mg/h
% Variation with respect to its own base ([3]; dose 100 mg/kg os): +7.71%
Mucoproduction (mg/h) M ± SD 0-4 h (after the treatment) ([3]; dose 100 mg/kg os): 32.10 ± 8.26 mg/h
mucolytic activity (in words) [3]: no mucolytic activity
IC50 [2]: 175 µg/mL (≈ 657 µM)
% inhibition ([2]; concentration 40 x 10^-6 g/ml): 0%
% inhibition ([2]; concentration 200 x 10^-6 g/ml): -54%
% inhibition ([2]; concentration 400 x 10^-6 g/ml): -78%
% inhibition ([2]; concentration 800 x 10^-6 g/ml): -100%

CC(=O)N[C@@H](CS)C(=O)O [N--acetylcysteine, reference compound]
Mucoproduction (mg/h) M ± SD 4-0 h (before the treatment) ([3]; group dosed 400 mg/kg os): 27.7 ± 5.50 mg/h
% Variation with respect to its own base ([3]; dose 400 mg/kg os): +16.21%
Mucoproduction (mg/h) M ± SD 0-4 h (after the treatment) ([3]; dose 400 mg/kg os): 32.19 ± 3.89 mg/h
